Where two headings read alike, the source gives them in different places.
Key:
Assay type in all cases: in vivo
[1] = tested on: Key Broadleaf and Grass Weed as well as Crop Species; experiment: Post-Emergent Test I: postemergent herbicidal activity, visual phytotoxicity rating 10 days after treatment (Table 5); conditions: for pest or weed control at 4000 g/ha / pest or weed control at 3960 g/ha: post-emergence, 240 h, 10 days after application; for pest or weed control at 3960 g/ha: 3.96 kg ai/ha
Outline: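 Plants grown 8-12 d in greenhouse (16 h photoperiod, 24-29° C.) before spraying compounds in acetone-DMSO/water-isopropanol-crop oil concentrate with 0.02% Triton X-155 at roughly 4.0, 2.0, 1.0 and 0.5 kg/ha. Injury scored visually 10 days after treatment, 0 (no activity) to 100 (complete plant death).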

[2] = tested on: Key Grass and Sedge Weeds as well as Grass Crops; experiment: Post-Emergent Test II: postemergent herbicidal activity, visual rating after 14 d (Table 8); conditions: post-emergence, 336 h; for pest or weed control at 35 g/ha: 35 g ai/ha; for pest or weed control at 70 g/ha: 70 g ai/ha; for pest or weed control at 140 g/ha: 140 g ai/ha; for pest or weed control at 280 g/ha: 280 g ai/ha
Outline: (§1)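 Scoring is visual, 0-100, at 14 d after application, comparing treated with untreated plants. Application: overhead track spray at 187 L/ha onto seedlings at 1-2 true leaves, in surfactant/crop-oil carrier.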

[3] = tested on: Key Broadleaf Weed and Crop Species; experiment: Post-Emergent Test II: postemergent herbicidal activity, visual rating after 14 d (Table 7); conditions: post-emergence, 336 h; for pest or weed control at 35 g/ha: 35 g ai/ha; for pest or weed control at 70 g/ha: 70 g ai/ha; for pest or weed control at 140 g/ha: 140 g ai/ha; for pest or weed control at 280 g/ha: 280 g ai/ha
Outline: as §1

[4] = barnyardgrass (Echinochloa crus-galli), read-out: Visual Growth Reduction (%) 14 Days After Application ECHCG
[5] = giant foxtail (Setaria faberi), read-out: Visual Growth Reduction (%) 14 Days After Application SETFA
[6] = maize, corn (Zea mays), read-out: Visual Growth Reduction (%) 14 Days After Application ZEAMX
[7] = rice (Oryza sativa), read-out: Visual Growth Reduction (%) 14 Days After Application ORYSA
[8] = wheat, spring (Triticum aestivum), read-out: Visual Growth Reduction (%) 14 Days After Application TRZAS
[9] = yellow nutsedge (Cyperus esculentus), read-out: Visual Growth Reduction (%) 14 Days After Application CYPES
[10] = lambsquarters (Chenopodium album), read-out: Visual Growth Reduction (%) 14 Days After Application CHEAL
[11] = oilseed rape, canola (Brassica napus), read-out: Visual Growth Reduction (%) 14 Days After Application BRSNN
[12] = redroot pigweed (Amaranthus retroflexus), read-out: Visual Growth Reduction (%) 14 Days After Application AMARE
[13] = sunflower (Helianthus annuus), read-out: Visual Growth Reduction (%) 14 Days After Application HELAN
[14] = velvetleaf (Abutilon theophrasti), read-out: Visual Growth Reduction (%) 14 Days After Application ABUTH
[15] = wild poinsettia (Euphorbia heterophylla), read-out: Visual Growth Reduction (%) 14 Days After Application EPHHL

## Nc1c(F)c(-c2cccc3c2OCO3)nc(C(=O)O)c1Cl [Compound 72, 4-Amino-6-(benzo[d][1,3]dioxol-4-yl)-3-chloro-5-fluoropicolinic acid]
[1]; barnyardgrass (Echinochloa crus-galli), 4 kg ai/ha
  Visual Growth Reduction (%) 10 Days After Application ECHCG: G (0-29)
[1]; giant foxtail (Setaria faberi), 4 kg ai/ha, read-out: Visual Growth Reduction (%) 10 Days After Application SETFA
  pest or weed control at 4000 g/ha: 0 to 29%
[1]; ivyleaf morningglory (Ipomoea hederecea), 4 kg ai/ha, read-out: Visual Growth Reduction (%) 10 Days After Application IPOHE
  pest or weed control at 4000 g/ha: 0 to 29%
[1]; sunflower (Helianthus annuus), 4 kg ai/ha, read-out: Visual Growth Reduction (%) 10 Days After Application HELAN
  pest or weed control at 4000 g/ha: 95 to 100%
[1]; wild oats (Avena fatua), 4 kg ai/ha, read-out: Visual Growth Reduction (%) 10 Days After Application AVEFA
  pest or weed control at 4000 g/ha: 0 to 29%
[2]; [4]
  pest or weed control at 35 g/ha: 0 to 29%
  pest or weed control at 70 g/ha: 0 to 29%
  pest or weed control at 140 g/ha: 0 to 29%
  pest or weed control at 280 g/ha: 0 to 29%
[2]; [5]
  pest or weed control at 35 g/ha: 0 to 29%
  pest or weed control at 70 g/ha: 0 to 29%
  pest or weed control at 140 g/ha: 0 to 29%
  pest or weed control at 280 g/ha: 0 to 29%
[2]; [6]
  pest or weed control at 35 g/ha: 0 to 29%
  pest or weed control at 70 g/ha: 0 to 29%
  pest or weed control at 140 g/ha: 0 to 29%
  pest or weed control at 280 g/ha: 0 to 29%
[2]; [7]
  pest or weed control at 35 g/ha: 0 to 29%
  pest or weed control at 70 g/ha: 0 to 29%
  pest or weed control at 140 g/ha: 0 to 29%
  pest or weed control at 280 g/ha: 0 to 29%
[2]; [8]
  pest or weed control at 35 g/ha: 0 to 29%
  pest or weed control at 70 g/ha: 0 to 29%
  pest or weed control at 140 g/ha: 0 to 29%
  pest or weed control at 280 g/ha: 0 to 29%
[2]; [9]
  pest or weed control at 35 g/ha: 0 to 29%
  pest or weed control at 70 g/ha: 0 to 29%
  pest or weed control at 140 g/ha: 0 to 29%
  pest or weed control at 280 g/ha: 0 to 29%
[3]; [10]
  pest or weed control at 35 g/ha: 95 to 100%
  pest or weed control at 70 g/ha: 95 to 100%
  pest or weed control at 140 g/ha: 95 to 100%
  pest or weed control at 280 g/ha: 95 to 100%
[3]; [11]
  pest or weed control at 35 g/ha: 75 to 84%
  pest or weed control at 70 g/ha: 95 to 100%
  pest or weed control at 140 g/ha: 95 to 100%
  pest or weed control at 280 g/ha: 95 to 100%
[3]; [12]
  pest or weed control at 35 g/ha: 95 to 100%
  pest or weed control at 70 g/ha: 95 to 100%
  pest or weed control at 140 g/ha: 95 to 100%
  pest or weed control at 280 g/ha: 95 to 100%
[3]; [13]
  pest or weed control at 35 g/ha: 95 to 100%
  pest or weed control at 70 g/ha: 95 to 100%
  pest or weed control at 140 g/ha: 95 to 100%
  pest or weed control at 280 g/ha: 95 to 100%
[3]; [14]
  pest or weed control at 35 g/ha: 75 to 84%
  pest or weed control at 70 g/ha: 95 to 100%
  pest or weed control at 140 g/ha: 95 to 100%
  pest or weed control at 280 g/ha: 95 to 100%
[3]; [15]
  pest or weed control at 35 g/ha: 0 to 29%
  pest or weed control at 70 g/ha: 0 to 29%
  pest or weed control at 140 g/ha: 0 to 29%
  pest or weed control at 280 g/ha: 0 to 29%

## Nc1c(F)c(-c2cccc3c2OC(F)(F)O3)nc(C(=O)O)c1Cl [Compound 74]
[1]; giant foxtail (Setaria faberi), read-out: Visual Growth Reduction (%) 10 Days After Application SETFA
  pest or weed control at 3960 g/ha: 0 to 29%
[1]; ivyleaf morningglory (Ipomoea hederecea), read-out: Visual Growth Reduction (%) 10 Days After Application IPOHE
  pest or weed control at 3960 g/ha: 60 to 74%
[1]; sunflower (Helianthus annuus), read-out: Visual Growth Reduction (%) 10 Days After Application HELAN
  pest or weed control at 3960 g/ha: 95 to 100%
[1]; wild oats (Avena fatua), read-out: Visual Growth Reduction (%) 10 Days After Application AVEFA
  pest or weed control at 3960 g/ha: 0 to 29%
[2]; [4]
  pest or weed control at 35 g/ha: 0 to 29%
  pest or weed control at 70 g/ha: 0 to 29%
  pest or weed control at 140 g/ha: 0 to 29%
[2]; [5]
  pest or weed control at 35 g/ha: 0 to 29%
  pest or weed control at 70 g/ha: 0 to 29%
  pest or weed control at 140 g/ha: 0 to 29%
[2]; [7]
  pest or weed control at 35 g/ha: 0 to 29%
  pest or weed control at 70 g/ha: 0 to 29%
  pest or weed control at 140 g/ha: 0 to 29%
[2]; [8]
  pest or weed control at 35 g/ha: 0 to 29%
  pest or weed control at 70 g/ha: 0 to 29%
  pest or weed control at 140 g/ha: 0 to 29%
[2]; [9]
  pest or weed control at 35 g/ha: 0 to 29%
  pest or weed control at 70 g/ha: 0 to 29%
  pest or weed control at 140 g/ha: 0 to 29%
[3]; [10]
  pest or weed control at 35 g/ha: 85 to 94%
  pest or weed control at 70 g/ha: 95 to 100%
  pest or weed control at 140 g/ha: 95 to 100%
[3]; [11]
  pest or weed control at 35 g/ha: 75 to 84%
  pest or weed control at 70 g/ha: 85 to 94%
  pest or weed control at 140 g/ha: 95 to 100%
[3]; [12]
  pest or weed control at 35 g/ha: 95 to 100%
  pest or weed control at 70 g/ha: 95 to 100%
  pest or weed control at 140 g/ha: 95 to 100%
[3]; [13]
  pest or weed control at 35 g/ha: 75 to 84%
  pest or weed control at 70 g/ha: 75 to 84%
  pest or weed control at 140 g/ha: 85 to 94%
[3]; [14]
  pest or weed control at 35 g/ha: 0 to 29%
  pest or weed control at 70 g/ha: 30 to 44%
  pest or weed control at 140 g/ha: 45 to 59%
[3]; [15]
  pest or weed control at 35 g/ha: 0 to 29%
  pest or weed control at 70 g/ha: 0 to 29%
  pest or weed control at 140 g/ha: 0 to 29%
